By Ki is commonly meant the equilibrium dissociation constant of an inhibitor or competing ligand from its target. Read a high Ki as weaker binding.

The results in this text go back to BindingDB's records for PubMed 10779381 (University of Ferrara, 2000).

The target of one test is T1, Adenosine receptor A3 (Homo sapiens, UniProt P0DMS8).
T1 sequence (P0DMS8 whole entry): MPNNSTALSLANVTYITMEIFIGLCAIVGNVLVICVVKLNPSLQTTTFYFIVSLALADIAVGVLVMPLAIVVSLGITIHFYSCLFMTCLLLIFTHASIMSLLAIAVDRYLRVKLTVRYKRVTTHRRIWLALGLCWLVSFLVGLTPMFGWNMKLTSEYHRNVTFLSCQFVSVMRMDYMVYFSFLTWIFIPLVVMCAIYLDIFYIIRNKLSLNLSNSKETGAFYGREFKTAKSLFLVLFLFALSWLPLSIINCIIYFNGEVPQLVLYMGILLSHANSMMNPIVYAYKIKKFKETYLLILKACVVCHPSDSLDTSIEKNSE

A further test concerns the target T2, Adenosine receptor A1 (Rattus norvegicus, UniProt P25099).
T2 sequence (P25099 whole entry): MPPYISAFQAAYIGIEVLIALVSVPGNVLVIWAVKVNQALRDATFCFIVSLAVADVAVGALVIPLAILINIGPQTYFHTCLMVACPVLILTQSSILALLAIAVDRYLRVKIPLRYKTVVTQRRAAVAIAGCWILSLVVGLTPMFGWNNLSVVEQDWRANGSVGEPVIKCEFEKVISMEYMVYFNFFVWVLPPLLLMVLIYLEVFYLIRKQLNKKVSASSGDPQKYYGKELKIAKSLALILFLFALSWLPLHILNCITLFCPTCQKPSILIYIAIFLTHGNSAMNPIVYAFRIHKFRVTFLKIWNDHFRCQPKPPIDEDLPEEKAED

Several values for one entry are separate records, joined by “and”; a condition that tells them apart may be missing. Equal values may be shown once.

As to `Nc1nc2ccc(Cl)cc2c2nc(-c3ccco3)nn12`, the inhibitory constant (Ki) at Adenosine receptor A3 was 90 nM and 65 nM. The same measure, in the same setting: under `Nc1nc2c(cnn2CCc2ccccc2)c2nc(-c3ccco3)nn12` stands more than 10000 nM; under `CCCn1cc2c(nc(NC(=O)Nc3cccc(Cl)c3)n3nc(-c4ccco4)nc23)n1` [1-(3-chlorophenyl)-3-[2-(furan-2-yl)-8-propyl-8H-pyrazolo[4,3-e][1,2,4]triazolo[1,5-c]pyrimidin-5-yl]urea], 0.48 nM and 0.98 nM. With `CCCn1cc2c(nc(NC(=O)Nc3ccc(OC)cc3)n3nc(-c4ccco4)nc23)n1` [J1.251.181G], the inhibition constant (Ki) on Adenosine receptor A1 was more than 10000 nM.
